Data set [1] can be described thus: adverse events evaluated via open-ended questionnaires. In kind it is in vivo, human. The following applies: 5-day intervention, single participants. On the procedure: Estimated glomerular filtration rate (eGFR) was calculated by the abbreviated MDRD equation (Stevens et al., Am J Kidney Dis. 2007; 50: 21-35). […] Twelve datasets were obtained for each individual yielding a total of 120 spectra in this study. In vivo metabolite concentrations were calculated using the muscle water signal as an internal intensity reference (Wang et al., J Magn Reson. 2014, 243: 81-84). The spectra were fitted in the time domain using a nonlinear least squares algorithm ([…]) in the Java-based magnetic resonance user interface (jMRUI) software package. […] Finally, possible adverse events of the intervention (e.g. muscle cramps, bloating, diarrhea) were evaluated via open-ended questionnaires administered during the trial.

Data set [2] is described as follows: single-dose pharmacokinetics experiment: serum creatine and creatinine by LC-MS/MS. In kind it is in vivo, human. As to conditions: for AUC (serum creatine) after single-dose intervention: linear-log trapezoidal method. On the procedure: (§1) Ten healthy young men (age 23.6±2.9 years, body mass index 23.8±1.5 kg/m′) were recruited and signed informed consent to voluntarily participate in this double-blind, crossover, randomized controlled trial. All experimental procedures were approved by the local institutional review board, and the study was conducted in accordance with the Declaration of Helsinki. All participants had no history of creatine supplementation (or other dietary supplements) within the 4 weeks before the study commenced. All participants also had no acute or chronic diseases as evaluated by pre-participation health check and blood profiles. All participants were required to maintain their normal activity patterns and diet during the study. The participants were required to not engaged in any exhaustive exercise 24 hours before the study commenced.
(§2) Washout period of 7 days was employed between all trials to prevent the residual or carry-over effects of treatments across study periods. For the single-dose experiment, participants were administered a liquid composition that was prepared by a researcher by dissolving a powder of their respective treatment compounds in 150 mL of lukewarm water. For the 5-day intervention, the participants received five powder sachets (one per day) containing an treatment compounds. The participants were advised to stir the content of the sachet into 150 mL of lukewarm water until the powder has dissolved and to drink the liquid composition about 30 minutes before breakfast. […] Clinical assessments for both experiments were carried out between 08:00 and 12:00 after an overnight fast of 12 hours. Venous blood samples were drawn at each time point (7 points in total) for a single-dose experiment, and serum analyzed for creatine and creatinine by modified LC-MS/MS (1200 Series LC System; Agilent Technologies Inc., Santa Clara, Calif., USA). To control for variance based on different hydration levels, all participants were restricted from water ingestion between the time of collecting the baseline sample and 120 minutes after administration of the treatment. For 5-day experiment, venous blood samples were drawn at baseline and at the various follow-up times, with serum analyzed for liver enzymes by an automated analyzer (Randox Laboratories Ltd., Crumlin, UK).
Where significant differences were found, the Tukey post-hoc test was employed to identify the differences. The area under the concentration-time curve (AUC) for serum creatine and creatinine were calculated using the linear-log trapezoidal method, with AUCs compared with one-way ANOVA. The significance level was set at P<0.05. Data were analyzed using the SPSS program (SPSS Inc., Chicago, Ill., USA).

Data set [3] is described as follows: 5-day intervention: total muscle creatine by proton magnetic resonance spectroscopy (MRS). Type of data set: in vivo, human. The following applies: after five-day intervention vs baseline. The method, then:
as §1, with “The participants were required to not engaged in any exhaustive exercise 24 hours before the study commenced.” left out
Washout period of 7 days was employed between all trials to prevent the residual or carry-over effects of treatments across study periods. […] Creatinine anhydrous has been produced from creatine monohydrate in an autoclave (Memmert UF 55, Schwabach, Germany) at 160° C. for 72 hours, with creatinine purity>99% in a final powder, as determined by NMR spectroscopy (Bruker Avance III 400, Billerica, Mass.). […] Venous blood samples were drawn at each time point (7 points in total) for a single-dose experiment, and serum analyzed for creatine and creatinine by modified LC-MS/MS (1200 Series LC System; Agilent Technologies Inc., Santa Clara, Calif., USA). […]

The nature of data set [4]: 5-day intervention: liver enzymes and estimated glomerular filtration rate (safety biomarkers). In kind it is in vivo, human. The method, then: as §1
as §2, with “Creatinine anhydrous has been produced from creatine monohydrate in an autoclave (Memmert UF 55, Schwabach, Germany) at 160° C.” for “Clinical assessments”, “72 hours, with creatinine purity>99% in a final powder, as determined by NMR spectroscopy (Bruker Avance III 400, Billerica, Mass.). […]” for “both experiments were carried out between 08:00 and 12:00 after an overnight fast of 12 hours.”, “To control for variance based on different hydration levels, all participants were restricted from water ingestion between the time of collecting the baseline sample and 120 minutes after administration of the treatment.” left out
Estimated glomerular filtration rate (eGFR) was calculated by the abbreviated MDRD equation (Stevens et al., Am J Kidney Dis. 2007; 50: 21-35). […] In vivo metabolite concentrations were calculated using the muscle water signal as an internal intensity reference (Wang et al., J Magn Reson. 2014, 243: 81-84). […] The peak integral values of the total creatine (creatine plus phosphocreatine) signal at 3.0 ppm and the non-suppressed water signal at 4.7 ppm were quantified using curve-fitting to Gaussian lines. […]

For data set [5] the following is noted: cited from earlier work.

Values joined by “and” are separate entries in the source; they are usually repeats but may differ in a detail not shown here. Identical values can stand only once. “Also recorded” adds a separate entry of the source.

As for `CN(CC(=O)O)C(=N)N.O=[N+]([O-])O` [CN, creatine nitrate], the “reported side effects / adverse events (in words)” value in data set [1] (nitrate) is given as “irregular non-diarrheal bowel movements; also recorded: excessive sleepiness”. Moreover, in data set [2] (male, human, in vivo, single oral dose (3 g CN + 3 g creatinine, 3 g CN or 3 g CRM), peak time, n=10 healthy men, read-out: average serum creatine concentration at 60 minutes post-administration), the concentration at 60 min turned out to be 164 ± 12.9 µM. In data set [2] (single oral dose), the “change in serum creatinine during the single-dose study (in words)” value is “remained essentially unchanged” and the “AUC (serum creatine) after single-dose intervention” value came out at 622.7 ± 62.9 µmol·min/L. Moreover, the “average increase in total muscle creatine levels” value in data set [3] turned out to be 8.0%. Also, in data set [4] (5-day intervention, n=10), the “participants with mildly reduced kidney function (eGFR 60-89 mL/min/1.73 m^2)” value was 40.0%. In data set [4] (at 5-day follow-up, mean ± SD, abbreviated MDRD equation), the eGFR was 89.8 ± 8.1 mL/min/1.73 m^2.

Take `CN(CC(=O)O)C(=N)N.O` [CRM, creatine monohydrate]: the “increase of total creatine content in skeletal muscles” value in data set [5] (dosages up to 30 g for a few days, human subject) is on record as “more than 20%”. Further, in data set [1], the “reported side effects / adverse events (in words)” value is given as “episodes of bloating”. Moreover, in data set [2] (single oral dose), the “AUC for serum creatinine” value worked out at 607.5 ± 37.7 µmol·min/L, the “change in serum creatinine during the single-dose study (in words)” value is listed as “remained essentially unchanged” and the “AUC (serum creatine) after single-dose intervention” value was found to be 466.3 ± 47.9 µmol·min/L. Further, the “average increase in total muscle creatine levels” value in data set [3] amounted to 2.1%. Moreover, in data set [4] (in vivo), the eGFR is listed as 91.7 ± 8.3 mL/min/1.73 m^2 and the “participants with mildly reduced kidney function (eGFR 60-89 mL/min/1.73 m^2)” value is given as 30.0%.

In the case of `CN(CC(=O)O)C(=N)N` [creatine], in data set [5] (less than 10 mmol/kg dw increase in resting total muscle creatine after five days at 20 g/day), the “individuals who do not respond to creatine supplementation (prevalence of non-responders)” value was “about 25% and 20-30%”.
